Assay results from ChEMBL document CHEMBL5223144, “Second generation Spautin-1 analogues targeting EGFR-mutant non-small cell lung cancer cells” (Bioorg Med Chem Lett, 2023).
pIC50: −log10 of the molar value. Activity calls are given as the source filed them. The rule behind the calls is not given here.

Columns and labels:
PC-9 [1] = experiment: Cytotoxicity against human PC-9 cells harboring EGFR mutant assessed as inhibition of cell growth; format: functional, cell-based
BEAS-2B [2] = experiment: Cytotoxicity against human BEAS-2B cells assessed as reduction in cell viability at 4 nM; format: toxicity, cell-based; conditions: 0.004 µM
[3] = molecular target: ALK tyrosine kinase receptor (Homo sapiens) (UniProt Q9UM73); experiment: Inhibition of ALK (unknown origin) at 10 nM
[4] = molecular target: Serine/threonine-protein kinase pim-1 (Homo sapiens) (UniProt P11309); experiment: Inhibition of Moloney murine leukemia virus Proviral integration site 1 at 10 nM
[5] = molecular target: Tyrosine-protein kinase Fer (Homo sapiens) (UniProt P16591); experiment: Inhibition of FER (unknown origin) at 10 nM
BEAS-2B [6] = experiment: Cytotoxicity against human BEAS-2B cells assessed as reduction in cell viability at 4 nM incubated in presence of afatinib; format: toxicity, cell-based; conditions: 0.004 µM
[7] = molecular target: Epidermal growth factor receptor (Homo sapiens) (UniProt P00533); experiment: Inhibition of EGFR (unknown origin) assessed as residual activity relative to control
PC-9 [8] = experiment: Additive cytotoxicity against human PC-9 cells assessed as reduction in cell viability at 4 nM incubated in presence of afatinib; format: functional, cell-based
PC-9 [9] = experiment: Cytotoxicity against human PC-9 cells harboring EGFR mutant assessed as inhibition of cell growth incubated for 72 hrs by ATP-based luminescence CellTiter-Glo assay; format: functional; conditions: PC-9, 72 h
[10] = molecular target: ALK tyrosine kinase receptor (Homo sapiens) (UniProt Q9UM73); experiment: Inhibition of ALK (unknown origin) at 50 nM
BEAS-2B [11] = experiment: Cytotoxicity against human BEAS-2B cells assessed as reduction in cell viability at 34 nM; format: toxicity, cell-based; conditions: 0.034 µM
[12] = molecular target: Tyrosine-protein kinase Fer (Homo sapiens) (UniProt P16591); experiment: Inhibition of FER (unknown origin) at 50 nM
[13] = molecular target: Serine/threonine-protein kinase pim-1 (Homo sapiens) (UniProt P11309); experiment: Inhibition of Moloney murine leukemia virus Proviral integration site 1 at 50 nM
BEAS-2B [14] = experiment: Cytotoxicity against human BEAS-2B cells assessed as reduction in cell viability at 34 nM incubated in presence of afatinib; format: toxicity, cell-based; conditions: 0.034 µM
PC-9 [15] = experiment: Additive cytotoxicity against human PC-9 cells assessed as reduction in cell viability at 34 nM incubated in presence of afatinib; format: functional, cell-based

Epidermal growth factor receptor (Homo sapiens), sequence (P00533 whole entry): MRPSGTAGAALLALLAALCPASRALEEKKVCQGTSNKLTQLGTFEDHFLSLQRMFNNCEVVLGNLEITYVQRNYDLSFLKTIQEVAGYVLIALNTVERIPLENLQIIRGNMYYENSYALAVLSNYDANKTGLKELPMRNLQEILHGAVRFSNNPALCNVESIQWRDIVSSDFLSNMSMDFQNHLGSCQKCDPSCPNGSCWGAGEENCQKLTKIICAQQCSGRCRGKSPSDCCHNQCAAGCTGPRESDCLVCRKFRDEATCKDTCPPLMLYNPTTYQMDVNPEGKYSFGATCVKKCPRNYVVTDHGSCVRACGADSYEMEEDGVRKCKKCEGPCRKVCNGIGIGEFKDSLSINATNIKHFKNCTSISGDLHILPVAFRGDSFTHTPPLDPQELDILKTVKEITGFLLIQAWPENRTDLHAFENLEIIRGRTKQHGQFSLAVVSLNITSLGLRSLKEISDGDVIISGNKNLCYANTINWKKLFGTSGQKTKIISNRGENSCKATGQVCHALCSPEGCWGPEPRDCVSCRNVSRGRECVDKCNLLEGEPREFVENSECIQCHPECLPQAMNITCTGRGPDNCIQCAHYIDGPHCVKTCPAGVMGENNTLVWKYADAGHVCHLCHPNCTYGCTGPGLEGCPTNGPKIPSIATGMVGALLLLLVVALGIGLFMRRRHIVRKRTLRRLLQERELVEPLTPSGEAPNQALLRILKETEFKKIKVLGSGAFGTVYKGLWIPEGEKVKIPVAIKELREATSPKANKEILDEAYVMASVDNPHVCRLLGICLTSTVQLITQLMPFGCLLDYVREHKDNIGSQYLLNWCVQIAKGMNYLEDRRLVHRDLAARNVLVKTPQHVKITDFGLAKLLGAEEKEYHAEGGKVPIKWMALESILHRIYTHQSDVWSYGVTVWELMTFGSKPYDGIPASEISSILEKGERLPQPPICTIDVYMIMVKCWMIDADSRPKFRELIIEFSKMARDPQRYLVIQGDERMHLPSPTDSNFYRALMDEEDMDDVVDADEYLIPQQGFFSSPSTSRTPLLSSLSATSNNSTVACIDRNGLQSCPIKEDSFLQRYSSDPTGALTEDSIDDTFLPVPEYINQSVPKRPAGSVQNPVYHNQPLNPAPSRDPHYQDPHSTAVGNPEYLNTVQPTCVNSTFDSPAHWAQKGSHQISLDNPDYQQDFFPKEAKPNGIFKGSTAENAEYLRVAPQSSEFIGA
ALK tyrosine kinase receptor (Homo sapiens), sequence (Q9UM73 19-1620 limits assumed): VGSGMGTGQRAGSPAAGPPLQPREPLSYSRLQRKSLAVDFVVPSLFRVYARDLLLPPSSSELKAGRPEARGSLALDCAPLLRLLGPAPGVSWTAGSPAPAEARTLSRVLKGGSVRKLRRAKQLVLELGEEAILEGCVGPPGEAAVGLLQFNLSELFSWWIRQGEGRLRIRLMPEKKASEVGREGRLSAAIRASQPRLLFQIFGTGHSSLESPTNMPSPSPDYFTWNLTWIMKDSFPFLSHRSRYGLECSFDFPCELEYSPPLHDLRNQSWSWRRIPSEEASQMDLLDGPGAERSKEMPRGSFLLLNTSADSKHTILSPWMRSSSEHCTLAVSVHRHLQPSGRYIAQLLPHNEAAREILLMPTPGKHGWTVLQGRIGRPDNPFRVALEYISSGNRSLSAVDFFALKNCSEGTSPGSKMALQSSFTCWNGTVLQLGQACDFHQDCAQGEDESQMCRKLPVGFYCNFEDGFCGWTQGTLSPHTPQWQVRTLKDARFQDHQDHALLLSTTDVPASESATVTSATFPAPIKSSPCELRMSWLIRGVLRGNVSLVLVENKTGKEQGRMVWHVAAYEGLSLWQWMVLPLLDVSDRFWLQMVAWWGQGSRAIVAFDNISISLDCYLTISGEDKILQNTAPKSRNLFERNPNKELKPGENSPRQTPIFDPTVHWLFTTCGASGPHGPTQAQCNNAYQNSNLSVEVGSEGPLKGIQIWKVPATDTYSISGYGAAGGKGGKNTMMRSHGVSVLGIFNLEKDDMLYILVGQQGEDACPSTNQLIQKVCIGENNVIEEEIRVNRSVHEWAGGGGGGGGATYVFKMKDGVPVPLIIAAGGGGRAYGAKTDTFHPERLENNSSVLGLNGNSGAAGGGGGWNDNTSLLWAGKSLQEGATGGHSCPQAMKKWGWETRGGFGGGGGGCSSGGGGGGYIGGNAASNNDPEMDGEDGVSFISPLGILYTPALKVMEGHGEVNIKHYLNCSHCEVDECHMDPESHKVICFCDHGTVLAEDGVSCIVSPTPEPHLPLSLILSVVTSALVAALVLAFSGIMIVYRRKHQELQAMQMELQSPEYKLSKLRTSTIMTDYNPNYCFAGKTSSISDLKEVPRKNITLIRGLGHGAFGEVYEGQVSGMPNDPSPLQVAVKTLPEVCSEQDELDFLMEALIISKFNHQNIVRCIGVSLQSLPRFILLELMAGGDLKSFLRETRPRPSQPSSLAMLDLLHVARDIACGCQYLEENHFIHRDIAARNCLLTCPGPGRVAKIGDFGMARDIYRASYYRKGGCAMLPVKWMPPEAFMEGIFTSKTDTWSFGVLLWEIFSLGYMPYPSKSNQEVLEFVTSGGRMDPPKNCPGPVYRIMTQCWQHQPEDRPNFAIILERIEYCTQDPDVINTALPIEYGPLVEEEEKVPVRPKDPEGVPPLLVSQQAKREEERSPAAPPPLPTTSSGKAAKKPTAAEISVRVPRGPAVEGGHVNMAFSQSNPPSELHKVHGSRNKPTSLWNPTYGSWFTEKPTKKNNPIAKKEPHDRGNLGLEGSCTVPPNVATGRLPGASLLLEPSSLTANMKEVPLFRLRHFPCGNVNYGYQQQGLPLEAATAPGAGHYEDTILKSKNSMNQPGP
Tyrosine-protein kinase Fer (Homo sapiens), sequence (P16591 whole entry, looked up): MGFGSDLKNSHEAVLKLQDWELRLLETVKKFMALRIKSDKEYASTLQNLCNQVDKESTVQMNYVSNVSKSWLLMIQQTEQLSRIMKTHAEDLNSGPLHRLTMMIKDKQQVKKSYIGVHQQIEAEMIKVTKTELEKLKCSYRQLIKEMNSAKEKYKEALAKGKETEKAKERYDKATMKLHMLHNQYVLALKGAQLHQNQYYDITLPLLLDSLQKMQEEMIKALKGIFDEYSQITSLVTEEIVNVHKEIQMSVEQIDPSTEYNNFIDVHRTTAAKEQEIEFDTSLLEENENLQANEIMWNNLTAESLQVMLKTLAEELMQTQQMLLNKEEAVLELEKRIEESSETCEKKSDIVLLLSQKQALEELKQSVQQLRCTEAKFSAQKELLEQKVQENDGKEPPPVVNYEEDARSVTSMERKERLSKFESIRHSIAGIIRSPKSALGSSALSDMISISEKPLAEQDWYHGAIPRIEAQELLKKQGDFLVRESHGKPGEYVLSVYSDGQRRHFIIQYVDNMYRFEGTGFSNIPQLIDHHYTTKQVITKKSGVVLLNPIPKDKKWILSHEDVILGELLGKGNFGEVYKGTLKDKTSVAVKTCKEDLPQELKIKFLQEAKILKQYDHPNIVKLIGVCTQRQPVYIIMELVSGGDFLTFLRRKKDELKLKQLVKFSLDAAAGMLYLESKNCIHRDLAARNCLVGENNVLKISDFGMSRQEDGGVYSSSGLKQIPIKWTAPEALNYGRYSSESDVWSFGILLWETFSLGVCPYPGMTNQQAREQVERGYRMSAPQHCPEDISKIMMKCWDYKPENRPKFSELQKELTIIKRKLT

Fc1ccc2ncnc(NCCc3ccc(Oc4ccccc4)cc3)c2c1
pIC50 (PC-9 [1]): 7.85

Fc1ccc2ncnc(NCCc3ccc(-c4ccc5c(c4)OCCO5)cc3)c2c1
pIC50 (PC-9 [1]): 7.16

CN(C)C/C=C/C(=O)Nc1cc2c(Nc3ccc(F)c(Cl)c3)ncnc2cc1O[C@H]1CCOC1 [AFATINIB]
pIC50 (PC-9 [1]): 8.30

COc1cccc(-c2ccc(CCNc3ncnc4ccc(F)cc34)cc2)c1
pIC50 (PC-9 [1]): 7.17

CC(C)(C)c1ccc(CCNc2ncnc3ccc(F)cc23)cc1
pIC50 (PC-9 [1]): 7.35

Fc1ccc(Oc2ccc(CCNc3ncnc4ccc(F)cc34)cc2)cc1
Activity (BEAS-2B [2]): Non-Toxic
inhibition [3]: Active
inhibition [4]: Active
inhibition [5]: Active
pIC50 (PC-9 [1]): 8.40
Activity (BEAS-2B [6]): Non-Toxic
Activity [7]: > 90%
Activity (PC-9 [8]): Active

Fc1ccc2ncnc(NCCc3ccc(-c4ccc(Cl)cc4)cc3)c2c1
pIC50 (PC-9 [1]): 7.36

Fc1ccc2ncnc(NCCc3cccc(-c4ccccc4)c3)c2c1
pIC50 (PC-9 [1]): 6.18

Fc1ccc2ncnc(NCCc3ccc4ccccc4c3)c2c1
pIC50 (PC-9 [1]): 7.19

Cc1ccc(-c2ccc(CCNc3ncnc4ccc(F)cc34)cc2)cc1
pIC50 (PC-9 [1]): 7.31

Fc1ccc2ncnc(NCCc3ccccc3Br)c2c1
pIC50 (PC-9 [1]): 6.05

CC(C)(C)c1ccc(-c2ccc(CCNc3ncnc4ccc(F)cc34)cc2)cc1
pIC50 (PC-9 [1]): 6.44

Fc1ccc2ncnc(NCCc3ccc(-c4ccc5ccccc5c4)cc3)c2c1
pIC50 (PC-9 [1]): 7.00

Fc1ccc2ncnc(NCCc3ccc(I)cc3)c2c1
pIC50 (PC-9 [1]): 6.58

Fc1ccc2ncnc(NCCc3ccc(-c4ccncc4)cc3)c2c1
pIC50 (PC-9 [1]): 6.39

Fc1ccc2ncnc(NCCc3ccccc3-c3ccccc3)c2c1
pIC50 (PC-9 [1]): < 5.30

CC(C)(C)Oc1ccc(-c2ccc(CCNc3ncnc4ccc(F)cc34)cc2)cc1
pIC50 (PC-9 [1]): 5.77

COc1ccc(-c2ccc(CCNc3ncnc4ccc(F)cc34)cc2)cc1
pIC50 (PC-9 [1]): 7.16

Fc1ccc(CNc2ncnc3ccc(F)cc23)cc1
pIC50 (PC-9 [9]): < 5.30

Fc1ccc2ncnc(NCCc3ccc(-c4cccnc4)cc3)c2c1
pIC50 (PC-9 [1]): 5.98

Fc1ccc2ncnc(NCCc3ccc(OCc4ccccc4)cc3)c2c1
pIC50 (PC-9 [1]): 7.52

COc1ccccc1-c1ccc(CCNc2ncnc3ccc(F)cc23)cc1
pIC50 (PC-9 [1]): 6.98

Fc1ccc2ncnc(NCCc3ccc(-c4ccc5oc6ccccc6c5c4)cc3)c2c1
pIC50 (PC-9 [1]): 7.10

Fc1ccc2ncnc(Nc3ccc4cc(Br)ccc4c3)c2c1
pIC50 (PC-9 [1]): < 5.30

Fc1ccc2ncnc(NCCc3ccc(-c4ccccc4F)cc3)c2c1
pIC50 (PC-9 [1]): 7.18

Fc1ccc2ncnc(NCCc3ccc(Br)cc3)c2c1
pIC50 (PC-9 [9]): 6.68

Fc1ccc2ncnc(NC3CCc4cc(Br)ccc4C3)c2c1 (centres undefined)
pIC50 (PC-9 [1]): 6.14

Fc1ccc(-c2ccc(CCNc3ncnc4ccc(F)cc34)cc2)c(F)c1
inhibition [10]: Active
Activity (BEAS-2B [11]): Non-Toxic
pIC50 (PC-9 [1]): 7.47
inhibition [12]: Active
inhibition [13]: Active
Activity [7]: > 90%
Activity (BEAS-2B [14]): Non-Toxic
Activity (PC-9 [15]): Active

Fc1ccc2ncnc(NCCc3ccc(-c4ccc(C(F)(F)F)cc4)cc3)c2c1
pIC50 (PC-9 [1]): 6.88

COc1ccc(Oc2ccc(CCNc3ncnc4ccc(F)cc34)cc2)cc1
pIC50 (PC-9 [1]): 8.15

Fc1ccc2ncnc(NCCc3ccc(-c4ccco4)cc3)c2c1
pIC50 (PC-9 [1]): 6.20

Fc1ccc2ncnc(NCCc3ccc(-c4ccc(Oc5ccccc5)cc4)cc3)c2c1
pIC50 (PC-9 [1]): 6.55

Fc1ccc2ncnc(NCCc3ccc(-c4cccc5ccccc45)cc3)c2c1
pIC50 (PC-9 [1]): 6.54

Fc1ccc2ncnc(NCCc3cccc(Br)c3)c2c1
pIC50 (PC-9 [1]): 6.16

Fc1ccc2ncnc(NCCc3ccc(-c4ccc(F)c(F)c4)cc3)c2c1
pIC50 (PC-9 [1]): 6.86

Fc1ccc2ncnc(NCCc3ccc(-c4ccccc4)cc3)c2c1
pIC50 (PC-9 [1]): 7.11

Fc1cccc(-c2ccc(CCNc3ncnc4ccc(F)cc34)cc2)c1
pIC50 (PC-9 [1]): 6.21

Fc1ccc2ncnc(NCCc3ccc(-c4cccc(F)c4F)cc3)c2c1
pIC50 (PC-9 [1]): 7.12

Fc1ccc2ncnc(NCCc3ccc(-c4ccoc4)cc3)c2c1
pIC50 (PC-9 [1]): 6.54

Fc1ccc(-c2ccc(CCNc3ncnc4ccc(F)cc34)cc2)cc1
pIC50 (PC-9 [1]): 6.80
